≈ marks a conversion by molar mass, not a printed value. Read-outs that look alike come from different tables or passages of the source.
What was measured:
[1] = Solubility in aqueous solvent; type: physicochemical; settings: 25° C.
Protocol: Experiment 4: Solubility in Aqueous Solvent The solubility in an aqueous solvent of the present compound was measured, and the results as shown in Table 4 were obtained. The pH value in Table 4 is a pH value of a solution of the present compound in distilled water.

[2] = tested on: pulmonary hemorrhage induced by human neutrophilic elastase; assay: Inhibitory activity on pulmonary hemorrhage induced by human neutrophilic elastase in hamsters; settings: hamster
Protocol: When human neutrophilic elastase is administered intratracheally to a hamster, the hemorrhage is induced in the lung. Hemoglobin is detected in the broncho-alveolar lavage fluid, which is obtained by washing the lung via bronchi at a fixed period after the elastase administration. In order to examine how much this hemorrhage can be inhibited by the present compound, this experiment was carried out by measuring the concentration of this hemoglobin.
Hamsters (male Syrian strain, 8-10 weeks old) were grouped into the following three groups (5 animals per group), and the following treatment was carried out on each group.
(A) Vehicle-Treated Control Group (Non-Treatment Group):
The result of the measurement was counted as A.
(B) Human Neutrophilic Elastase-Treated Group (Without the Present Compound):
Human neutrophilc elastase (25 units, manufactured by Elastin Products, Inc.) was dissolved in physiological saline solution (0.2 ml), and the solution thus obtained was administered to the hamsters at the bronchial tube to induce the pulmonary hemorrhage. One hour after the administration of elastase, the concentration of hemoglobin in the broncho-alveolar lavage fluid was measured in the same manner as in Group (A). The result of the measurement was counted as B.
(C) Human Neutrophilic Elastase-Treated Group (with the Present Compound):
A fixed amount of the present compound was administered to the hamsters in the form of a phosphate-buffered saline solution (pH 7.4) in the manner as described below. Then, human neutrophilic elastase was administered to the hamsters in the same manner as the above. One hour after the administration of elastase, the concentration of hemoglobin in the washing of the broncho-alveolar lavage was measured in the same manner as in Group (A). The result of the measurement was counted as C.
Administration Method of the Present Compound:
The administration of the present compound to the hamsters was carried out by two kinds of methods. One of them is a method of intravenous bolus-administration of the solution containing the present compound 5 minutes prior to the elastase administration. Another method is a method of intravenous infusion of the solution containing the present compound for a period of 70 minutes beginning at 10 minutes prior to the elastase administration.
Std:ddy mice = type: in vivo; settings: intravenous administration 300 mg/kg, 24 hours after administration
Source text: Experiment 3: Acute Toxicity Test in Mice
Twenty-four hours after the administration, the animals were observed if dead or alive.
*: Number of survived animals/number of tested animals

[3] = target: T1, Human neutrophilic elastase (Homo sapiens, UniProt P08246); assay: Human neutrophilic elastase inhibitory activity in vitro (fluorogenic substrate); type: biochemical; settings: 37° C., pH 7.5
T1 construct: purchased Sigma
T1 sequence (P08246 30-267): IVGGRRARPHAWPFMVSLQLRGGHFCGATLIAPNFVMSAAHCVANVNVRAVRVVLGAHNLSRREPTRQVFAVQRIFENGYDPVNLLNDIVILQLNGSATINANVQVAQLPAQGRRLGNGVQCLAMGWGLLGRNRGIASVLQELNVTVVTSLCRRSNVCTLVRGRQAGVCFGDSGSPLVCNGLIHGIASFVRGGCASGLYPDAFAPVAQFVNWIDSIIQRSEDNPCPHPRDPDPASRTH
Protocol: Experiment 1: Human Neutrophilic Elastase Inhibitory Activity
In the present experiment, the inhibitory activity of the present invention against human neutrophilic elastase was studied in vitro.
The resulting solution (210 μl) was mixed with a 10^−8-10^−5 M solution of the present compound (40 μl), and the mixture was pre-incubated at 37° C. for 6 minutes. To this solution, 4 mM succinyl-alanyl-prolyl-alanine 4-methyl-coumaryl-7-amide (substrate solution, Peptide Institute Inc.) (50 μl) and distilled water (100 μl) were added, and the mixture was further reacted at 37° C. for 20 minutes. The concentration of the 7-amino-4-methylcoumarine thus obtained was measured fluorimetrically by monitoring at an excitation wave length of 380 nm and a fluorescent wave length of 460 nm.
The above “Bri j-35” means polyoxyethylene (23) lauryl ether, and the “HEPES” means N-(2-hydroxyethyl)piperazine-N′-(2-ethane-sulfonic acid).
In the following equation, A means the intensity of fluorescence when a present compound is added, and B means the intensity of fluorescence when a present compound is not added.
Inhibitory Rate (%)=(1−A/B)×100

[4] = distilled water, pH of the solution given beside each value, read-out: Solubility, Water
[5] = aqueous buffer, 0.1 M phosphate buffer pH 7.4, read-out: Solubility, 0.1 M Phosphate buffer (pH 7.4)
[6] = intravenous bolus administration 3 mg/kg, 5 minutes prior to elastase
[7] = intravenous bolus administration 10 mg/kg, 5 minutes prior to elastase
[8] = intravenous infusion 1 mg/kg/hr for 70 minutes
[9] = intravenous infusion 3 mg/kg/hr for 70 minutes
[10] = intravenous infusion 10 mg/kg/hr for 70 minutes

Row | IC50 [3] [nM] | SMILES | solubility [1, 4] [mg/mL] | solubility [1, 5] [mg/mL] | Hemorrhage inhibitory rate ([2]; intravenous bolus administration 100 mg/kg (control dose row)) [%] | Hemorrhage inhibitory rate ([2]; intravenous infusion 10 mg/kg/hr (control dose row)) [%] | Hemorrhage inhibitory rate ([2]; intravenous infusion 100 mg/kg/hr (control dose row)) [%] | Livability (number of survived animals/number of tested animals) (Std:ddy mice) | Hemorrhage inhibitory rate [2, 6] [%] | Hemorrhage inhibitory rate [2, 7] [%] | Hemorrhage inhibitory rate [2, 8] [%] | Hemorrhage inhibitory rate [2, 9] [%] | Hemorrhage inhibitory rate [2, 10] [%]
1 | – | CC(C)(C)C(=O)Oc1ccc(S(=O)(=O)Nc2ccccc2C(=O)NCC(=O)O)cc1 [Control (a), reference compound] | 0.012 (≈ 0.0276 mM) | ~20 (≈ 46 mM) | 74 | 18 | 60 | – | – | – | – | – | –
2 | – | CC(C)[C@H](NC(=O)CN1CCN(CC(=O)O)C1=O)C(=O)N1CCC[C@H]1C(=O)N[C@H](C(=O)C(F)(F)F)C(C)C [I-b-1, 2-(3-carboxymethyl-2-oxo-1-imidazolidinyl)acetyl-L-valyl-N-[(1S)-3,3,3-trifluoro-1-isopropyl-2-oxopropyl]-L-prolinamide] | > 1000 | > 1000 | – | – | – | 6/6 | – | – | – | – | –
3 | – | CC(C)[C@H](NC(=O)[C@@H]1CCCN1C(=O)[C@@H](NC(=O)Cn1ccc(=O)n(CC(=O)O)c1=O)C(C)C)C(=O)c1nc2ccccc2o1 [I-b-2, 2-(3-carboxymethyl-2,4-dioxo-1-pyrimidinyl)acetyl-L-valyl-N-[(1S)-2-(2-benzoxazolyl)-1-isopropyl-2-oxoethyl]-L-prolinamide] | 5 (≈ 8 mM) | > 100 | – | – | – | 6/6 | – | – | – | – | –
4 | – | CC(C)[C@H](NC(=O)[C@@H]1CCCN1C(=O)[C@@H](NC(=O)Cn1ccc(=O)n(CC(=O)O)c1=O)C(C)C)C(=O)C(=O)NCc1ccccc1 [I-b-3, 2-(3-carboxymethyl-2,4-dioxo-1-pyrimidinyl)acetyl-L-valyl-N-[(1S)-3-benzylamino-1-isopropyl-2,3-dioxopropyl]-L-prolinamide] | 8.7 (≈ 13.6 mM) | > 100 | – | – | – | 6/6 | – | – | – | – | –
5 | 82 | CC(C)[C@H](NC(=O)CN1C(=O)CN(CC(=O)O)C1=O)C(=O)N1CCC[C@H]1C(=O)N[C@H](C(=O)C(F)(F)F)C(C)C [I-b-7, 2-(3-carboxymethyl-2,5-dioxo-1-imidazolidinyl)acetyl-L-valyl-N-[(1S)-3,3,3-trifluoro-1-isopropyl-2-oxopropyl]-L-prolinamide] | – | – | – | – | – | – | 50 | 64 | 51 | 53 | 72
6 | 45 | CC(C)[C@H](NC(=O)[C@@H]1CCCN1C(=O)[C@@H](NC(=O)CC(=O)N1CCN(CC(=O)O)C(=O)C1)C(C)C)C(=O)c1nc2ccccc2o1 [I-b-10] | – | – | – | – | – | – | 32 | 76 | 52 | 69 | 92

From patent US6835714B1, “Heterocyclic compounds, intermediates thereof and elastase inhibitors” (Dainippon Pharmaceutical Co., Ltd., priority 1999, dated 2004)
